Publication PMC8791448 (ACS infectious diseases, 2021)

Target: T1, ecLpxC (UDP-3-O-acyl-N-acetylglucosamine deacetylase) (Escherichia coli, UniProt P0A725)
T1 sequence (P0A725 1-305): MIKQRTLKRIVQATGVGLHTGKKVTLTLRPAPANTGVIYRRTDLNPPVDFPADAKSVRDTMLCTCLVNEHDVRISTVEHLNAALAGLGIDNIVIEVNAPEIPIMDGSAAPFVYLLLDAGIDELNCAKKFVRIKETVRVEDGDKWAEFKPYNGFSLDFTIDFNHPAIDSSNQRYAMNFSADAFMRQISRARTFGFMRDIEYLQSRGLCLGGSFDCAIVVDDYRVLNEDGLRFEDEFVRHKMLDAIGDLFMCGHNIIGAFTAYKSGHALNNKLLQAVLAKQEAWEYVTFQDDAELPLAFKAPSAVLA
Experiment: residence time on purified ecLpxC by displacement with fluorescent ligand PT900
Assay type: binding
Settings: read-out: tR (min)^b

C[C@@H](O)[C@H](NC(=O)c1ccc(C#Cc2ccc(CN3CCOCC3)cc2)cc1)C(=O)NO [CHIR-090]
residence time: 66 ± 30 min
